The values that follow come from PubChem BioAssay (NCI).

Assay in all cases: growth of human tumour cells (NCI), 48 h
In assay [1] the test system is UACC-257 melanoma.
Assay [2] concerns NCI-H226 lung.
Assay [3] concerns OVCAR-5 ovarian.
The test system of assay [4] is BT-549 breast.
Assay [5] relates to SK-MEL-5 melanoma.
Assay [6] has as its system HS 578T breast.
Assay [7] relates to RXF 393 renal.
Assay [8] has as its system HT29 colon.
Assay [9] deals with NCI-H460 lung.
For assay [10], the system named is TK-10 renal.

Where “and” joins values, the source holds several entries; their conditions need not be identical. Equal entries are not always repeated.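 All cell lines were grown in 96-well plates and treated with compound for 48 hours. GI50 = concentration required for 50% inhibition of growth. TGI is the concentration that stops growth completely.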

Regarding `CC[C@H](C)[C@H](NC(=O)[C@H]1CCCCN1C)C(=O)N(C)[C@H](C[C@@H](OC(C)=O)c1nc(C(=O)N[C@@H](Cc2ccccc2)C[C@H](C)C(=O)O)cs1)C(C)C`, the GI50 was greater than 16.5 µM in assay [1]; 0.0113 µM and < 0.00165 µM in [2]; 0.00324 µM and 0.00165 µM in assay [3]; 0.000676 µM and < 0.00165 µM in assay [4]; 0.00013 µM and < 0.00165 µM in assay [5]; 0.00101 µM and 0.00165 µM in assay [6]. Further, the GI50 in assay [7] is 0.00165 µM; in assay [8], 0.000356 µM and 0.00165 µM; in assay [9] it was 0.000369 µM and 0.00165 µM. Besides, the TGI was greater than 16.5 µM in [1]; less than 0.00165 µM in assay [2]; greater than 16.5 µM in assay [3]; 0.0102 µM and < 0.00165 µM in [5]; greater than 16.5 µM in [6]; greater than 16.5 µM in [7]. Besides, the TGI in assay [8] was 0.002 µM; in assay [9] it was greater than 16.5 µM.

For the molecule `Cn1cc(C2=C(c3cn(CCCCCSC(=N)N)c4ccccc34)C(=O)NC2=O)c2ccccc21`, the GI50 in assay [10] was 2.66 µM; in assay [1], 4.01 µM; in assay [2] it was 4.09 µM; in [3], 4.48 µM; in assay [4], 3.65 µM; in assay [5], 3.28 µM. In addition, the GI50 is 2.24 µM in assay [6], 2.55 µM in assay [7], 1.11 µM in assay [8] and 3.73 µM in assay [9]. Moreover, the TGI in [10] was found to be 5.71 µM; in assay [1], 7.47 µM; in assay [2], 9.96 µM; in assay [3] it was 8.26 µM; in assay [4], 7.12 µM; in [5], 6.67 µM. Further, the TGI amounted to 11.1 µM in assay [6], 5.68 µM in [7], 4.03 µM in assay [8] and 7.75 µM in assay [9].

Turning to `CN(Cc1cnc2nc(N)nc(N)c2n1)c1ccc(C(=O)NC(CCC(=O)O)C(=O)O)cc1Br` (stereo not drawn), the GI50 in assay [10] is less than 0.01 µM; in [1], 0.168 µM; in [2], less than 0.01 µM; in assay [3], less than 0.031 µM; in [4], less than 0.01 µM; in assay [5], less than 0.01 µM. Moreover, the GI50 was 1.1 µM in assay [6], 0.459 µM in assay [7], less than 0.01 µM in assay [8] and less than 0.01 µM in assay [9]. Besides, the TGI was greater than 100 µM in assay [10]; 16.5 µM in [1]; greater than 96.4 µM in assay [2]; greater than 100 µM in assay [3]; 2.5 µM in assay [4]; 4.51 µM in assay [5]. The TGI in assay [6] was 6.39 µM; in [7], 5.01 µM; in assay [8], greater than 100 µM; in [9], 4.9 µM.

As for `COC(=O)CSSCc1ccc([N+](=O)[O-])cc1`, the TGI in assay [10] is 55.7 µM; in [1], 98.4 µM; in [3], 35.6 µM; in assay [4] it was 41.7 µM; in assay [5], 50.9 µM; in [6], 59.4 µM. Moreover, the TGI in assay [7] is 36.2 µM; in assay [8] it was 60.8 µM; in assay [9], greater than 100 µM.

In the case of `CCOC(=O)COc1ccc2c(C)cc(=O)oc2c1`, the TGI in assay [1], in assay [2], in assay [3], in [4], in assay [5] and in assay [6] was greater than 100 µM in each case. The TGI in assay [7], in assay [8] and in assay [9] was greater than 100 µM in each case.

As to `COc1cc2c(=O)[nH]c3cc([N+](=O)[O-])ccc3c2cc1[N+](=O)[O-]`, the GI50 in assay [10] was 3.29 µM; in assay [1], 3.28 µM; in assay [2], 3.25 µM; in [3], 63.4 µM; in assay [4], 7.89 µM; in assay [5], 4.63 µM. For the same molecule, the GI50 in assay [6] is 23.3 µM; in assay [7] it was 6.99 µM; in [8], 2.93 µM. Further, the TGI was greater than 100 µM in assay [10]; greater than 100 µM in [1]; 39.2 µM in [2]; greater than 100 µM in assay [3]; greater than 100 µM in [4]; greater than 100 µM in assay [5]. For the same molecule, the results for the TGI in assay [6], in assay [7] and in assay [8] were greater than 100 µM, 92.2 µM and greater than 100 µM, respectively.

Take `CN(C)C(=S)SCC(=O)Nc1ccccc1`: the TGI in assay [1], in assay [2], in [3], in assay [4], in assay [5] and in [6] was greater than 100 µM throughout. For the same molecule, the TGI in assay [7], in assay [8] and in assay [9] was greater than 100 µM in each case.

On to `O=C(CN1C(=O)S/C(=C\C(Cl)=C\c2ccccc2)C1=O)NC1C=CS(=O)(=O)C1` (stereo not drawn), for which the GI50 was 2.08 µM in assay [10]; 2.18 µM in assay [1]; 2.31 µM in [3]; 1.75 µM in assay [4]; 1.72 µM in assay [5]; 2.33 µM in assay [6]. Also, the GI50 in assay [7] was 0.849 µM; in assay [8], 1.92 µM; in assay [9] it was 1.86 µM. In addition, the TGI in assay [10] stood at 6.61 µM; in [1], 8.82 µM; in assay [3] it was 6.13 µM; in assay [4] it was 4.78 µM; in assay [5] it was 3.22 µM; in assay [6], 8.33 µM. The TGI in assay [7] amounted to 2.18 µM; in assay [8] it was 6.72 µM; in assay [9] it was 6.36 µM.

Regarding `COc1cc2nc3cc([N+](=O)[O-])ccc3c(NCCNCC(C)(C)O)c2cc1OC`, the GI50 in assay [10] was 1.7 µM; in assay [1] it was 1.94 µM; in assay [2], 1.28 µM; in assay [3], 2.22 µM; in [4], 1.84 µM; in assay [6], 1.75 µM. For the same molecule, the GI50 in assay [7] is 1.07 µM; in assay [8], 0.327 µM; in assay [9], 0.377 µM. The TGI worked out at 5.43 µM in assay [10]; 4.19 µM in assay [1]; 4.05 µM in assay [2]; 8.87 µM in [3]; 4.14 µM in assay [4]; 6.15 µM in assay [6]. The TGI in [7] worked out at 2.87 µM; in [8] it was 1.4 µM; in assay [9], 1.47 µM.
